Where “and” joins values, the source holds several entries; their conditions need not be identical. Equal entries are not always repeated.
Test system: 328373-195-R-J1-PDC complex spheroids, viability % test/control
Test: Anticancer human tumor 328373-195-R-J1-PDC patient-derived head and neck squamous carcinoma cell line growth inhibition [CLK]
Details: for viability, T/C: stronger effect = lower value; for IC50: curve of compound
Description: A high-throughput screen of multi-cell type tumor spheroids was designed to identify active combinations of […] and targeted small molecules. Complex spheroids include a stromal component modeled by human endothelial cells (HUVEC) and fibroblasts modeled by human mesenchymal stem cells (MSCs). The concentration ranges selected for each drug and investigational agent were based upon clinically achievable concentrations if the clinical Cmax of the agent was known.
Compounds. The drugs and investigational agents: cirtuvivint (SM08502; NSC835563), CC-671 (NSC850746), vemurafenib (NSC761431), tapotoclax (NSC804041), sotorasib (NSC818433), adagrasib (NSC831453), MRTX-1133 (NSC836407), BAY2416964 (NSC825713), copanlisib (NSC816437), inavolisib (NSC800729), abemaciclib (NSC768073), osimertinib (NSC779217), entinostat (NSC756642), eltanexor (KPT-8602, NSC794443), venetoclax (NSC766270), ceralasertib (NSC777638), bortezomib (NSC756655), olaparib (NSC753686), talazoparib (NSC767125), alisertib (NSC759677), peposertib (NSC802822), gemcitabine (NSC613327), 5-fluorouracil (NSC19893), SN-38 (NSC673596), oxaliplatin (NSC266046), paclitaxel (NSC125973), and doxorubicin (NSC123127), were obtained from the National Cancer Institute (NCI) Developmental Therapeutics Program Chemical Repository. The FDA-approved anticancer drug set is available from the Developmental Therapeutics Program at https://dtp.cancer.gov/organization/dscb/obtaining/available plates.htm. […] The stock solutions were prepared in dimethyl sulfoxide (DMSO, Sigma-Aldrich, St. Louis, MO, cat. D2650), except for the platinum complexes which were prepared in saline (Quality Biological, Gaithersburg, MD, cat. 114-055-101), at 800-fold the tested concentration and stored at -70 degrees C prior to their use. All drugs and investigational agents were tested over a range starting from a high concentration at or near the clinical Cmax and decreasing in half-log increments. If the clinical Cmax for an agent had not been determined, the highest concentration tested was 10 microM.
Cell Culture. All cells were maintained in an incubator at 37 degrees C and 5% CO2 with 95% humidity. The PDC lines were cultured according to standard operating procedures established by the NCI PDMR. Briefly, all PDCs were thawed and cultured in Matrigel-coated flasks prepared with a working solution of 1X Ham's F-12 nutrient mix, without supplementation (Invitrogen, Waltham, MA, cat. 11765054), 100 U/mL penicillin-streptomycin (Invitrogen, cat. 15140122), and 2.5% Matrigel (Corning Inc., Corning, NY, cat. 354248) for the first three passages. The 947758-054-R-J2-PDC line was cultured in 6B/Colon 1A media, which includes advanced DMEM/F-12 (Thermo Fisher Scientific, cat. 12634028), 10 mM HEPES (Thermo Fisher Scientific, cat. 15630080), 1X GlutaMAX supplement (Thermo Fisher Scientific, cat. 35050061), 0.1 mg/mL primocin (InvivoGen, cat. ant-pm-2), 10% defined fetal bovine serum, heat inactivated (HyClone Laboratories Inc., cat. SH30070.03HI), 1.25 mM N-Acetyl-L-cysteine (Sigma-Aldrich, cat. A9165), 10 mM nicotinamide (Sigma-Aldrich, cat. N0636), 1X B-27 supplement (Thermo Fisher Scientific, cat. 17504044), 1X N-2 supplement (Thermo Fisher Scientific, cat. 17502048), and 10 microM Y-27632 dihydrochloride (Tocris Bioscience, cat. 1254). The 876862-298-R-J1-PDC was cultured in 6E media, which includes all 6B/Colon 1A media components plus 50% L-WRN conditioned media (ATCC, cat. CRL-3276), 50 ng/mL recombinant human EGF recombinant protein (hEGF; Thermo Fisher Scientific, cat. PHG0311), 10 ng/mL recombinant human fibroblast growth factor 10 (hGFG-10; PeproTech, cat. 100-26), 1 ng/mL recombinant human fibroblast growth factor 2 (hFGF-2; PeproTech, cat. 100-18B), and 1 µM prostaglandin E2 (PGE2; Tocris, cat. 2296). The 227483-062-R1-J1-PDC line was cultured in Panc media, containing all 6E components except hFGF-2, with the addition of 500 nM SB-431542 (Selleckchem, cat. S1067) and 10 nM gastrin (Tocris, cat. 3006). […]
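Note: spheroids exposed to the agents for 7 days.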

CC(=O)O[C@H]1C(=O)[C@@]2(C)[C@H]([C@H](OC(=O)c3ccccc3)[C@]3(O)C[C@H](OC(=O)[C@H](O)[C@@H](NC(=O)c4ccccc4)c4ccccc4)C(C)=C1C3(C)C)[C@]1(OC(C)=O)CO[C@@H]1C[C@@H]2O
viability, T/C (compound 0.0316 µM): 10.2% and 4.45% | viability, T/C (compound 0.1 µM): 5.56% and 4.34% | viability, T/C (compound 0.316 µM): 5.87% and 5.98% | viability, T/C (compound 1 µM): 10.8% and 8.33% | viability, T/C (compound 3.16 µM): 14.6% and 9.57% | viability, T/C (compound 10 µM): 14.7% and 10.1% | IC50: < 0.0316 µM

CC(CO)NC(=O)c1cc(-c2ccc(Cl)cc2)nn(-c2cnn(C)c2)c1=O (stereo unspecified)
viability, T/C (compound 0.0316 µM): 101% and 99.6% | viability, T/C (compound 0.1 µM): 105% and 97% | viability, T/C (compound 0.316 µM): 105% and 113% | viability, T/C (compound 1 µM): 112% and 109% | viability, T/C (compound 3.16 µM): 112% and 119% | viability, T/C (compound 10 µM): 88.7% and 91.8% | IC50: > 10 µM

CC(Nc1ccc2c(c1)OCCn1cc(N3C(=O)OCC3C(F)F)nc1-2)C(N)=O (stereo unspecified)
viability, T/C (compound 0.0316 µM): 86% and 91.1% | viability, T/C (compound 0.1 µM): 76.5% and 86.9% | viability, T/C (compound 0.316 µM): 77.7% and 75.1% | viability, T/C (compound 1 µM): 73.9% and 78.2% | viability, T/C (compound 3.16 µM): 53.4% and 56.5% | viability, T/C (compound 10 µM): 40% and 44.6% | IC50: 4.34 µM and 6.46 µM

CC1(C)CCC(CN2CCN(c3ccc(C(=O)NS(=O)(=O)c4ccc(NCC5CCOCC5)c([N+](=O)[O-])c4)c(Oc4cnc5[nH]ccc5c4)c3)CC2)=C(c2ccc(Cl)cc2)C1
viability, T/C (compound 0.0316 µM): 103% and 85% | viability, T/C (compound 0.1 µM): 88.8% and 76.7% | viability, T/C (compound 0.316 µM): 95.1% and 98.1% | viability, T/C (compound 1 µM): 90% and 84% | viability, T/C (compound 3.16 µM): 81.7% and 74.5% | viability, T/C (compound 10 µM): 25.7% and 8.47% | IC50: 6.04 µM and 4.85 µM

CC1COCCN1c1cc(C2(S(C)(=N)=O)CC2)nc(-c2ccnc3[nH]ccc23)n1 (stereo unspecified)
viability, T/C (compound 0.0316 µM): 99.7% and 95.9% | viability, T/C (compound 0.1 µM): 91.5% and 81.3% | viability, T/C (compound 0.316 µM): 88.8% and 91.9% | viability, T/C (compound 1 µM): 70.2% and 70% | viability, T/C (compound 3.16 µM): 29.4% and 27.2% | viability, T/C (compound 10 µM): 9.11% and 6.62% | IC50: 1.76 µM and 1.73 µM

CNC(=O)c1ccc(Nc2nc(OC3CCCC3)c3c(-c4ccc5nc(C)oc5c4)c[nH]c3n2)c(OC)c1
viability, T/C (compound 0.1 µM): 12.1% [middle of 12 runs] | viability, T/C (compound 0.316 µM): 10.1% [middle of 11 runs] | viability, T/C (compound 1 µM): 9.35% [middle of 12 runs] | viability, T/C (compound 3.16 µM): 9.17% [middle of 12 runs] | viability, T/C (compound 10 µM): 11.8% [middle of 12 runs]

COc1ccc([C@@H](O)c2cc(-c3ncnc4cc(N5CCOCC5)ccc34)c(F)cc2Cl)nn1
viability, T/C (compound 0.0316 µM): 92.4% and 111% | viability, T/C (compound 0.1 µM): 91.4% and 93% | viability, T/C (compound 0.316 µM): 88% and 80% | viability, T/C (compound 1 µM): 86.8% and 84.3% | viability, T/C (compound 3.16 µM): 76% and 71.4% | viability, T/C (compound 10 µM): 48.9% and 47.2% | IC50: 9.71 µM and > 10 µM

COc1cccc2c1C(=O)c1c(O)c3c(c(O)c1C2=O)CC(O)(C(=O)CO)CC3OC1CC(N)C(O)C(C)O1 (stereo unspecified)
viability, T/C (compound 0.0316 µM): 14.6% and 11.2% | viability, T/C (compound 0.1 µM): 11.1% and 6.08% | viability, T/C (compound 0.316 µM): 1.12% and 2.35% | viability, T/C (compound 1 µM): 0.18% and 1.14% | viability, T/C (compound 3.16 µM): 2.47% and 0.1% | viability, T/C (compound 10 µM): 1.82% and 1.43% | IC50: < 0.0316 µM

Nc1ccccc1NC(=O)c1ccc(CNC(=O)OCc2cccnc2)cc1
viability, T/C (compound 0.0316 µM): 87.1% and 84.6% | viability, T/C (compound 0.1 µM): 71.8% and 68.4% | viability, T/C (compound 0.316 µM): 54.6% and 49.4% | viability, T/C (compound 1 µM): 38.6% and 28.9% | viability, T/C (compound 3.16 µM): 31.2% and 21.1% | viability, T/C (compound 10 µM): 7.32% and 4.87% | IC50: 0.515 µM and 0.299 µM

Source: PubChem BioAssay AID2060620 (Molecular Pharmacology Branch, DTP, NCI, 2025)
